SMILES strings stand for the structures. pEC50: −log10 of the molar value.

One assay deals with T1, full length human TREX1 (Homo sapiens, UniProt Q9NSU2).
T1 construct: N-terminally His-Tev tagged full length human TREX1; His-Tev (His tag with TEV protease site) (N); made in house; host or cells: E. coli
T1 sequence (Q9NSU2 1-314): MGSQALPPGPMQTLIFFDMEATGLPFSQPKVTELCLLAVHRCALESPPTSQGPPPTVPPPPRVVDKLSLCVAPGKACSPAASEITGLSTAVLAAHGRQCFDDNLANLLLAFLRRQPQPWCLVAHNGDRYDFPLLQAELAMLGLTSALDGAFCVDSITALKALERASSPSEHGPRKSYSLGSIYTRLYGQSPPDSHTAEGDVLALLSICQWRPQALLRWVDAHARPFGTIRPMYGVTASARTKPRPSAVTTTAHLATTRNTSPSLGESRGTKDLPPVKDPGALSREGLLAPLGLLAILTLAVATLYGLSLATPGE
Briefly: TREX1 Biochemical Assay (fluorescence assay, degradation of dsDNA substrate). Conditions: 150 pM TREX1, 60 nM dsDNA substrate, 25 minutes at room temperature; read-out: hTREX1 EC50. Put shortly:
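E. coli-expressed His-Tev-tagged full-length TREX1 (150 pM) with 60 nM quenched-fluorophore dsDNA in Tris pH 7.4, 150 mM NaCl, 100 mM MgCl2, 1% DMSO, 25 min room temperature, 10-point dose-response. EDTA stop; fluorescence 615 nm (ex 570 nm); IC50 from four-parameter fit against pre-quenched and no-inhibitor controls.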

The target of assay [1] is T2, human TREX2 (residues M44-A279) (Homo sapiens, UniProt Q9BQ50).
T2 construct: human TREX2 (residues M44-A279, expressed in E. coli); His-Tev (His tag with TEV protease site) (N); made in house; host or cells: E. coli
T2 sequence (Q9BQ50 44-279 isoform Q9BQ50-1): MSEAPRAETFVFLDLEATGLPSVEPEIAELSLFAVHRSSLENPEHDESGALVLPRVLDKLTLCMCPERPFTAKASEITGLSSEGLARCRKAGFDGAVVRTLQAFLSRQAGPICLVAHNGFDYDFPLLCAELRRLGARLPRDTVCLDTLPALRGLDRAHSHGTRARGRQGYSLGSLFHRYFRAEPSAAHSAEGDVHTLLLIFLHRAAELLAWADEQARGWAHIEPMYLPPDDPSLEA
Briefly: TREX2 Biochemical Assay (fluorescence assay, degradation of dsDNA substrate). Conditions: 2.5 nM TREX2, 60 nM dsDNA substrate, 25 minutes at room temperature; read-out: hTREX2 EC50. Put shortly:
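His-Tev-tagged human TREX2 (M44-A279, E. coli-expressed) at 2.5 nM final, with 60 nM TEX615/quencher-labelled dsDNA in pH 7.4 Tris buffer with MgCl2 and 1.0% DMSO, 10-point dose-response, 25 min at room temperature, then EDTA quench. Fluorescence read at 615 nm (ex 570 nm). IC50 from four-parameter fit against pre-quenched and no-inhibitor controls.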

As a reminder, the pEC50 is −log10 of the EC50, conventionally taken in molar units. For the compound `COc1cccc(CN(Cc2ccc(NC(C)=O)nc2)C(=O)c2cccc(F)c2)c1Cl` [Compound 213, N-((6-acetamidopyridin-3-yl)methyl)-N-(2-chloro-3-methoxybenzyl)-3-fluorobenzamide], the negative-log EC50 (pEC50) at full length human TREX1 is under 5.00; in assay [1], under 4.00.
The matching figures for `O=C(c1cnco1)N(Cc1cccnc1)Cc1ccc(Cl)cc1Cl` [Compound 117]: under 5.00 and under 4.00.
The corresponding values for `O=C(c1cccc(F)c1)N(Cc1ccncc1)Cc1ccc(Cl)cc1Cl` [Compound 97] are under 5.00 and under 4.00.
The matching figures for `O=C(O)c1ccc(CN(Cc2ccc3ncccc3c2Cl)C(=O)c2cc(F)cc(F)c2)cn1` [Compound 191]: over 7.00 and 5.00 to 6.00.
For `Cn1ncc2cc(CN(Cc3cccnc3)C(=O)c3cccc(F)c3)ccc21` [Compound 126], the negative logarithm of the EC50 (pEC50) was under 5.00 on full length human TREX1 and under 4.00 in assay [1].

The values are drawn from US20230233541A1, “SUBSTITUTED BENZAMIDES AS MODULATORS OF TREX1” (Constellation Pharmaceuticals, Inc., priority 2020, published 2023).
